Data reported in patent US20230295119A1, “SUBSTITUTED PYRIDINES FOR THE TREATMENT OF INFLAMMATORY DISEASES” (GOSSAMER BIO SERVICES, INC., priority 2020, published 2023).
pIC50: −log10 of the molar value. Read-outs that look alike come from different tables or passages of the source.

Tests used:
TYK2 JH2 domain = TYK2 JH2 domain (Homo sapiens (Human), UniProt P29597); test: TYK2 JH2 NanoBRET assay; format: binding; settings: Table 20, read-out: TYK2 IC50
How it was run: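 HEK293T cells transiently expressing NanoLuc-TYK2 JH2 fusion, incubated 2 h with compound and NanoBRET K10 tracer (0.5 µM final). Target engagement read as acceptor/donor BRET ratio after Nano-Glo substrate plus extracellular NanoLuc inhibitor.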

human JAK1 = human JAK1 (Homo sapiens (Human), UniProt P23458); test: JAK1 TR-FRET kinase assay; format: biochemical
Chain of human JAK1 (P23458 whole entry): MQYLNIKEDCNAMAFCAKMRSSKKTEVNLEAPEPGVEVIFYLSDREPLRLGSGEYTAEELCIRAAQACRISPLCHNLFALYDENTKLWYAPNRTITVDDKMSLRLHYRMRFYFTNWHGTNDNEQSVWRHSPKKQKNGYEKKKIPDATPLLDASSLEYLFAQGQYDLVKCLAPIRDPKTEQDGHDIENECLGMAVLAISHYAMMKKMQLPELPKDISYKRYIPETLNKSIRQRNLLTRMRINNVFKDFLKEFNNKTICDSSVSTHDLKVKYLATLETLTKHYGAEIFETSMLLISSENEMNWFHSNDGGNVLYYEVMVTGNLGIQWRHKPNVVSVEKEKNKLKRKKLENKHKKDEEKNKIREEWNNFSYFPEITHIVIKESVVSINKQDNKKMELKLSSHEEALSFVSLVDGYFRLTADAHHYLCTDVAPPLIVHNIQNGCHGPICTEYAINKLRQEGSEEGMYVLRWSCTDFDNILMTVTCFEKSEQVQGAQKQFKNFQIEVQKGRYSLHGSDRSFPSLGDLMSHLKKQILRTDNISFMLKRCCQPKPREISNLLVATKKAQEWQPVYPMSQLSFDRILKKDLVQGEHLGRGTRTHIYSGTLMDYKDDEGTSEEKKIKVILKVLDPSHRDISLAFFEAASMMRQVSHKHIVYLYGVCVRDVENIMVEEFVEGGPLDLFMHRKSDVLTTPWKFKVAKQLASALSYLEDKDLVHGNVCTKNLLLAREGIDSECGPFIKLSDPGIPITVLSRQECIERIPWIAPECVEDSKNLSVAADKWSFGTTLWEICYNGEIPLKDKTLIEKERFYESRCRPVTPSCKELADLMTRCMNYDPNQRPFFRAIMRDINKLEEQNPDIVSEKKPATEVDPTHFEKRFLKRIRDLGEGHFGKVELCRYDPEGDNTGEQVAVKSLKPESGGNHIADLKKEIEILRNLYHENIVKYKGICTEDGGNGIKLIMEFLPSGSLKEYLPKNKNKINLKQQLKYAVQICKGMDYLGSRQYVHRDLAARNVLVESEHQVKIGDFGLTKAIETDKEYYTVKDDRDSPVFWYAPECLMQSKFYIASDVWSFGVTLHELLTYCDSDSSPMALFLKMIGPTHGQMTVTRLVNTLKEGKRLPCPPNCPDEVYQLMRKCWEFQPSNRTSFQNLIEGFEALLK

human JAK2 = human JAK2 (Homo sapiens (Human), UniProt O60674); test: JAK2 TR-FRET kinase assay; format: biochemical; settings: JAK2 0.025 nM
Chain of human JAK2 (O60674 whole entry): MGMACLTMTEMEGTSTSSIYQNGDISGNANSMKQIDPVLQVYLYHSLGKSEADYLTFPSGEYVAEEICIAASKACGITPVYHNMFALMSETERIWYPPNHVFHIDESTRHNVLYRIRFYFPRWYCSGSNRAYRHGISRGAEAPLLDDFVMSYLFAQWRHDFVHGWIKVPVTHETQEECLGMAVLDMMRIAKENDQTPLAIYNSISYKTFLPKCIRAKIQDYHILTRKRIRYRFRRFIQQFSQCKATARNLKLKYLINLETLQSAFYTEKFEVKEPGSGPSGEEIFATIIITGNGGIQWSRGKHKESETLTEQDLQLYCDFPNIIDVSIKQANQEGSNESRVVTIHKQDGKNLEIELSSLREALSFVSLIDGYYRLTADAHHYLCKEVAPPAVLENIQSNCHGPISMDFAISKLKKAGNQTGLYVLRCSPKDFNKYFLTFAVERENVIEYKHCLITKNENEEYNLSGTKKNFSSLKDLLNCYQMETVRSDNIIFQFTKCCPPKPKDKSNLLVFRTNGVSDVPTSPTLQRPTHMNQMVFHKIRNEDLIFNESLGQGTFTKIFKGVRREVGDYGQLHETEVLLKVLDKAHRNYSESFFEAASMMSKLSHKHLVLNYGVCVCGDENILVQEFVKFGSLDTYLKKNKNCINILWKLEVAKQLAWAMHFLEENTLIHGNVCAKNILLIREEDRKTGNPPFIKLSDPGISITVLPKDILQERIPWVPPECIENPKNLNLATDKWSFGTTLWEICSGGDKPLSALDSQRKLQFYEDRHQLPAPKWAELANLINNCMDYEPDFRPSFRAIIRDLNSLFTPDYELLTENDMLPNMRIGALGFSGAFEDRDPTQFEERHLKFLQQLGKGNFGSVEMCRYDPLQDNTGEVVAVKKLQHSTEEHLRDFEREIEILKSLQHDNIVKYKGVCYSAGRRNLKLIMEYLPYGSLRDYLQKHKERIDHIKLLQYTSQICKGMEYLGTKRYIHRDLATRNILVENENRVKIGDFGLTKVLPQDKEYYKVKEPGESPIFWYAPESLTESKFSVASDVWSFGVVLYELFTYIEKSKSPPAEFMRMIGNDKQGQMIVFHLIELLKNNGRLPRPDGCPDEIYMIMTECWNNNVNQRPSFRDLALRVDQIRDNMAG

human JAK3 = human JAK3 (Homo sapiens (Human), UniProt P52333); test: JAK3 TR-FRET kinase assay; format: biochemical; settings: JAK3 0.0125 nM
Chain of human JAK3 (P52333 whole entry): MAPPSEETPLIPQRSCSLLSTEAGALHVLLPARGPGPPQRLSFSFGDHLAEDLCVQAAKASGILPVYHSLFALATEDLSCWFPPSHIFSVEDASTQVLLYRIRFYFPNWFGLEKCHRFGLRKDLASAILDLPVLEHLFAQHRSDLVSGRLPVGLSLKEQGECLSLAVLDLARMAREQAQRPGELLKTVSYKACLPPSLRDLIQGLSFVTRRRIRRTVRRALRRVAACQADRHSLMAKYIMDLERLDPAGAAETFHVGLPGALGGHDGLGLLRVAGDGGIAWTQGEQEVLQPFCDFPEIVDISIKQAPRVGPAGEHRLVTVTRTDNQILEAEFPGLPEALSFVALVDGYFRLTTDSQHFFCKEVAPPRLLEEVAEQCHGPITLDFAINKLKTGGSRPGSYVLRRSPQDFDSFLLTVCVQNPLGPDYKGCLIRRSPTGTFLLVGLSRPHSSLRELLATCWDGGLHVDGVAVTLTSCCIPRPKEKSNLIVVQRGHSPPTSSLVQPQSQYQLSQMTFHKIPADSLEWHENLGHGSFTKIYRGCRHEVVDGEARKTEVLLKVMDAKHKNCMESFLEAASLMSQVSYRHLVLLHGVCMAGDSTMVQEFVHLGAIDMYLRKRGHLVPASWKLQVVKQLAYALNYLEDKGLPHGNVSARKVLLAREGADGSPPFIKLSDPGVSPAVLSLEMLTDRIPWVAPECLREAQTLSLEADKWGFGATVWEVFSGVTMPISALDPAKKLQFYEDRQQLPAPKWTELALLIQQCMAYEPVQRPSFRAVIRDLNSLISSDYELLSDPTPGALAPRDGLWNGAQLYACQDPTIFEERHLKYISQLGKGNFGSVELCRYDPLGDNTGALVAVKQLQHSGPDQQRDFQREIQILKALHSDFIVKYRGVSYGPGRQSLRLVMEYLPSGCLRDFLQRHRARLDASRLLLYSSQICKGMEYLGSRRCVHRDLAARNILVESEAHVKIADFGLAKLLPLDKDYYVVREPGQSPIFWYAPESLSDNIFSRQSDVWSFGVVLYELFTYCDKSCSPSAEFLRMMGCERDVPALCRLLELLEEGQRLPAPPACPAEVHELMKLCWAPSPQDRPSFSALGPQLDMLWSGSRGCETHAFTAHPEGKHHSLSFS

Chain of TYK2 JH2 domain (P29597 589-875): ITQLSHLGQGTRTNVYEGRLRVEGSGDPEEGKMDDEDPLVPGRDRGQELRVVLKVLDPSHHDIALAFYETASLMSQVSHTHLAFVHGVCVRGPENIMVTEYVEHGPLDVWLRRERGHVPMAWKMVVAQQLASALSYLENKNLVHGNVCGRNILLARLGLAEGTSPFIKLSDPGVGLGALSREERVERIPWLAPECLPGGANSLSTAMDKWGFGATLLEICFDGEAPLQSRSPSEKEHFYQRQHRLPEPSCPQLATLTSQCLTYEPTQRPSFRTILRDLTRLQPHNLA

pIC50 (TYK2 JH2 domain)	pIC50 (human JAK1; TR-FRET, JAK1 2.5 nM)	pIC50 (human JAK2)	pIC50 (human JAK3)	SMILES	pIC50 (human JAK1)
> 8.30	≤ 6.30	6.30 to 7.30	6.30 to 7.30	CCC(=O)c1cnc(Nc2ccc(OCC(C)(C)O)cn2)cc1Nc1cccc(-c2ncn(C)n2)c1OC [Compound 18E]	
6.30 to 7.30	≤ 6.30	≤ 6.30	6.30 to 7.30	CCC(=O)c1cnc(Nc2ccn(CC3(C)COC3)n2)cc1Nc1cccc(-c2ncn(C)n2)c1OC [Compound 21Q]	
7.30 to 8.30	≤ 6.30	≤ 6.30	6.30 to 7.30	CCC(=O)c1cnc(Nc2ccc(O[C@@H]3CCN(C)C3)cn2)cc1Nc1cccc(-c2ncc(F)cn2)c1OC [Compound 18VVV]	
7.30 to 8.30	≤ 6.30	≤ 6.30	≤ 6.30	CCC(=O)c1cnc(Nc2ccn(S(=O)(=O)C3CC3)n2)cc1Nc1cccc(-c2ncn(C)n2)c1OC [Compound 21D]	
6.30 to 7.30	≤ 6.30	≤ 6.30	≤ 6.30	CCC(=O)c1cnc(NC(=O)CC2(O)CC2)cc1Nc1cccc(-c2ncn(C)n2)c1OC [Compound 23C]	
7.30 to 8.30	≤ 6.30	≤ 6.30	≤ 6.30	CCC(=O)c1cnc(Nc2cnc(O[C@H]3CN(C)CC3(F)F)cn2)cc1Nc1cccc(-c2ncn(C)n2)c1OC [Compound 18RRR]	
7.30 to 8.30	≤ 6.30	≤ 6.30	≤ 6.30	CCC(=O)c1cnc(Nc2ncc(CN(C)C)cc2F)cc1Nc1cccc(-c2ncn(C)n2)c1OC [Compound 9DDDD]	
7.30 to 8.30	≤ 6.30	≤ 6.30	≤ 6.30	CCC(=O)c1cnc(Nc2cnc(OCCN3CC(F)(F)C3)cn2)cc1Nc1cccc(-c2ncn(C)n2)c1OC [Compound 18QQ]	
> 8.30	≤ 6.30	≤ 6.30	≤ 6.30	CCC(=O)c1cnc(Nc2ccc(CN)cn2)cc1Nc1cccc(-c2ncn(C)n2)c1OC [Compound 9B]	
7.30 to 8.30	≤ 6.30	≤ 6.30	≤ 6.30	CCC(=O)c1cnc(Nc2ncc(CS(C)(=O)=O)cc2F)cc1Nc1cccc(-c2ncn(C)n2)c1OC [Compound 13AA]	
7.30 to 8.30	≤ 6.30	≤ 6.30	≤ 6.30	CCC(=O)c1cnc(NC(=O)CC2CC2)cc1Nc1cccc(-c2ncn(C)n2)c1OC [Compound 23B]	
≤ 6.30	≤ 6.30	≤ 6.30	≤ 6.30	CCC(=O)c1cnc(NC(=O)CC2CN(C)C2)cc1Nc1cccc(-c2ncn(C)n2)c1OC [Compound 23G]	
7.30 to 8.30	≤ 6.30	6.30 to 7.30	≤ 6.30	CCC(=O)c1cnc(Nc2ccc(C(C)NCC(F)(F)F)cn2)cc1Nc1cccc(-c2ncn(C)n2)c1OC (stereo not drawn) [Compound 9Z]	
> 8.30	≤ 6.30	≤ 6.30	≤ 6.30	CCC(=O)c1cnc(Nc2ccc(CN3CC(OC)C3)cn2)cc1Nc1cccc(-c2ncn(C)n2)c1OC [Compound 9DD]	
> 8.30	≤ 6.30	≤ 6.30	≤ 6.30	CCC(=O)c1cnc(Nc2cnc(CNC)cn2)cc1Nc1cccc(-c2ncn(C)n2)c1OC [Compound 9RRR]	
> 8.30	≤ 6.30	≤ 6.30	≤ 6.30	CCC(=O)c1cnc(Nc2cc(CN3CCCC3)ncn2)cc1Nc1cccc(-c2ncn(C)n2)c1OC [Compound 9NNNN]	
> 8.30	≤ 6.30	6.30 to 7.30	6.30 to 7.30	CCC(=O)c1cnc(Nc2ccc(C(C)NCC(F)F)cn2)cc1Nc1cccc(-c2ncn(C)n2)c1OC (stereo not drawn) [Compound 9AA]	
> 8.30	≤ 6.30	≤ 6.30	≤ 6.30	CCC(=O)c1cnc(Nc2ccc(CN(C)C3CC(F)(F)C3)cn2)cc1Nc1cccc(-c2ncn(C)n2)c1OC [Compound 9EEE]	
7.30 to 8.30	≤ 6.30	≤ 6.30	≤ 6.30	CCC(=O)c1cnc(Nc2cnc(O[C@@H]3CCNC3)cn2)cc1Nc1cccc(-c2ncn(C)n2)c1OC [Compound 18SS]	
> 8.30	≤ 6.30	≤ 6.30	6.30 to 7.30	CCC(=O)c1cnc(Nc2cc(CN3CCCCC3)ccn2)cc1Nc1cccc(-c2ncn(C)n2)c1OC [Compound 9JJJJ]	

pIC50 (TYK2 JH2 domain)	pIC50 (human JAK1; TR-FRET, JAK1 2.5 nM)	pIC50 (human JAK2)	pIC50 (human JAK3)	SMILES	pIC50 (human JAK1)
> 8.30	≤ 6.30	≤ 6.30	≤ 6.30	CCC(=O)c1cnc(Nc2cc(-c3ncn(C)n3)ccn2)cc1Nc1cccc(-c2ncn(C)n2)c1OC [Compound 15F]	
7.30 to 8.30	≤ 6.30	≤ 6.30	6.30 to 7.30	CCC(=O)c1cnc(Nc2ccn(CCC#N)n2)cc1Nc1cccc(-c2ncn(C)n2)c1OC [Compound 21M]	
7.30 to 8.30	≤ 6.30	≤ 6.30	≤ 6.30	COc1c(-c2ncn(C)n2)ccnc1Nc1cc(Nc2ccc(-n3ccnc3)cn2)ncc1C(=O)C1CC1 [Compound 15R]	
> 8.30	≤ 6.30	≤ 6.30	≤ 6.30	CCC(=O)c1cnc(Nc2ccc(CN3C[C@@H](C)O[C@@H](C)C3)cn2)cc1Nc1cccc(-c2ncn(C)n2)c1OC [Compound 9UU]	
7.30 to 8.30	≤ 6.30	≤ 6.30	≤ 6.30	CCC(=O)c1cnc(Nc2ccc(CN(C)C)nn2)cc1Nc1cccc(-c2ncn(C)n2)c1OC [Compound 9HHH]	
7.30 to 8.30	≤ 6.30	≤ 6.30	≤ 6.30	CCC(=O)c1cnc(Nc2cnc(C(F)(F)CO)cn2)cc1Nc1cccc(-c2ncn(C)n2)c1OC [Compound 19D]	
> 8.30	≤ 6.30	≤ 6.30	6.30 to 7.30	CCC(=O)c1cnc(Nc2ccc(CN3CC4(COC4)C3)cn2)cc1Nc1cccc(-c2ncn(C)n2)c1OC [Compound 9YY]	
> 8.30	≤ 6.30	≤ 6.30	≤ 6.30	CCC(=O)c1cnc(Nc2ccc(-n3ccccc3=O)cn2)cc1Nc1cccc(-c2ncn(C)n2)c1OC [Compound 15A, 6′-((4-((2-methoxy-3-(1-methyl-1H-1,2,4-triazol-3-yl)phenyl)amino)-5-propionylpyridin-2-yl)amino)-2H-[1,3′-bipyridin]-2-one]	
≤ 6.30	≤ 6.30	6.30 to 7.30	6.30 to 7.30	CCC(=O)c1cnc(Nc2ccc(OC(C)(C)C(=O)O)c(C)n2)cc1Nc1cccc(-c2ncn(C)n2)c1OC [Compound 18L]	
7.30 to 8.30	≤ 6.30	≤ 6.30	≤ 6.30	CCC(=O)c1cnc(NC(=O)[C@@H]2C[C@H]2CN(C)C)cc1Nc1cccc(-c2ncn(C)n2)c1OC [Compound 22D]	
> 8.30	≤ 6.30	≤ 6.30	≤ 6.30	CCC(=O)c1cnc(Nc2ccc(CN3CCCC3)cn2)cc1Nc1cccc(-c2ncn(C)n2)c1OC [Compound 9II]	
> 8.30	≤ 6.30	≤ 6.30	≤ 6.30	CCC(=O)c1cnc(Nc2ccc([C@H](C)N3CC[C@@H](O)C3)cn2)cc1Nc1cccc(-c2ncn(C)n2)c1OC [Compound 9NN]	
7.30 to 8.30	≤ 6.30	≤ 6.30	≤ 6.30	CCC(=O)c1cnc(Nc2cnc(OCCN3CC[C@@H](F)C3)cn2)cc1Nc1cccc(-c2ncn(C)n2)c1OC [Compound 18YY]	
> 8.30	≤ 6.30	≤ 6.30	≤ 6.30	CCC(=O)c1cnc(Nc2ccc(-n3ccncc3=O)cn2)cc1Nc1cccc(-c2ncn(C)n2)c1OC [Compound 15V]	
7.30 to 8.30	≤ 6.30	≤ 6.30	≤ 6.30	CCC(=O)c1cnc(Nc2ccn(CC3CCCO3)n2)cc1Nc1cccc(-c2ncn(C)n2)c1OC (stereo not drawn) [Compound 21S]	
7.30 to 8.30	≤ 6.30	≤ 6.30	6.30 to 7.30	CCC(=O)c1cnc(Nc2ccc([C@H](C)N3C[C@@H](O)[C@H](O)C3)cn2)cc1Nc1cccc(-c2ncn(C)n2)c1OC [Compound 9PP]	
> 8.30	≤ 6.30	6.30 to 7.30	6.30 to 7.30	CCC(=O)c1cnc(Nc2ccc(-n3cnccc3=O)cn2)cc1Nc1cccc(-c2ncn(C)n2)c1OC [Compound 15Y]	
6.30 to 7.30	≤ 6.30	≤ 6.30	≤ 6.30	CCC(=O)c1cnc(NC(=O)CCc2cnn(C)c2)cc1Nc1cccc(-c2ncn(C)n2)c1OC [Compound 23F]	
7.30 to 8.30	≤ 6.30	≤ 6.30	≤ 6.30	CCC(=O)c1cnc(Nc2ncc(OC3COC3)cc2F)cc1Nc1cccc(-c2ncn(C)n2)c1OC [Compound 18BBBB]	
7.30 to 8.30	≤ 6.30	≤ 6.30	≤ 6.30	CCC(=O)c1cnc(Nc2cnc(OCCN3CC(F)C3)cn2)cc1Nc1cccc(-c2ncn(C)n2)c1OC [Compound 18PP]	

SMILES	pIC50 (TYK2 JH2 domain)	pIC50 (human JAK1; TR-FRET, JAK1 2.5 nM)	pIC50 (human JAK2)	pIC50 (human JAK3)	pIC50 (human JAK1)
CCC(=O)c1cnc(Nc2cc(OCCOC)n(C)n2)cc1Nc1cccc(-c2ncn(C)n2)c1OC [Compound 24A, 1-(4-((2-methoxy-3-(1-methyl-1H-1,2,4-triazol-3-yl)phenyl)amino)-6-((5-(2-methoxyethoxy)-1-methyl-1H-pyrazol-3-yl)amino)pyridin-3-yl)propan-1-one]	> 8.30		6.30 to 7.30	6.30 to 7.30	< 6.30
CCC(=O)c1cnc(NC(=O)C2CC2)cc1Nc1cc(F)cc(-c2ncn(C)n2)c1OC [Compound 25A, N-(4-((5-fluoro-2-methoxy-3-(1-methyl-1H-1,2,4-triazol-3-yl)phenyl)amino)-5-propionylpyridin-2-yl)cyclopropanecarboxamide]	7.30 to 8.30	≤ 6.30	≤ 6.30	≤ 6.30	
